# Test results: a melting point compilation (Tetko et al.; mined from patent text by program, amines drawn as free bases though some values may be those of a salt)
row,melting point,SMILES
1,139 °C,CC(C)(C)c1ccc(SCCCCCOc2ccc(C3=C(c4ccccc4)CCCc4cc(O)ccc43)cc2)cc1
2,151 to 153 °C,Cc1nc(N2CCN(Cc3nccc4ccccc34)C2=O)sc1C(=O)NCc1cccnc1
3,205 to 207 °C,Cc1ccc(-n2nc(C(C)(C)C)cc2NC(=O)Nc2ccc(OCCN3CCS(=O)CC3)c3ccccc23)cc1
4,66 to 68 °C,COc1ccc(-c2nc(CN)no2)cc1
5,262 °C,Cn1c(=O)cc(-c2cccc(Cl)c2)c2cc(C(O)(c3ccc(Cl)cc3)c3cnccc3N)ccc21 (stereo unspecified)
6,62 to 63 °C,CCN1CCCC1CNC(=O)c1c(O)ccc(Br)c1OC (stereo unspecified)
7,162 to 163 °C,COc1ccc(CN2C(=O)C(c3cc(C#N)c(O)cc3O)c3ccccc32)cc1 (stereo unspecified)
8,179 °C,CC(C)(C)OC(=O)N1CCO[C@@H](c2ccc(C(N)=O)cc2)C1
9,> 250 °C,Cn1nc(-c2nc(C#N)c(N)nc2-c2ccccc2)ccc1=O
10,287 to 288 °C,COc1ccc2c(c1)c1c3c(c(-c4ccccc4Cl)cc1n2CCC#N)C(=O)NC3=O
11,251 to 252 °C,CNC(=O)Cc1c(-c2ccc(C)cc2)nc2n(C)c3ccccc3n12
12,245 to 247 °C,CC(=O)NCC1CN(c2ccc(N3CCN(c4nc(=O)n(-c5ccccc5)s4)CC3)c(F)c2)C(=O)O1 (stereo unspecified)
13,126 to 128 °C,C=C(C)[C@@H]1CC[C@](C)(O)[C@@H](n2ccnc2)C1
14,98 to 99 °C,CC(C)(C)OC(=O)NC(Cc1ccc(OCc2ccccc2)cc1)CN1CCOCC1 (stereo unspecified)
15,198 to 200 °C,CCCCc1nc2c(N)nc3ccccc3c2n1CCCC(=NOC)c1ccccc1
16,215 to 218 °C,COc1ccc(-c2cc(=O)c3c(O)cc(O)cc3o2)cc1OCC(O)CO (stereo unspecified)
17,127 to 137 °C,Cc1noc(NS(=O)(=O)c2ccccc2-c2ccc(-c3ncco3)cc2CN(C)C(=O)c2ccccc2F)c1C
18,146 to 148 °C,COCCOc1ccc(/C=C/C(=O)NS(=O)(=O)CC(F)(F)F)c(Oc2ncc(C(F)(F)F)cc2Cl)c1
19,262 to 265 °C,O=C1NC(=O)C(c2cn3c4c(cccc24)CCC3)=C1c1ccc(OCc2ccccc2)cc1
20,> 230 °C,CSc1nn2c(N)cc(C)nc2c1S(=O)(=O)c1ccccc1
21,125 °C,CCOC(=O)N1CCc2nc3ccccc3c(C)c2CC1
22,183 to 185 °C,Nc1ccc(NCCCNc2cccc3c2C(=O)c2ccccc2C3=O)cc1
23,90 to 105 °C,O=C(c1cnc2ccccc2n1)N1CC2CC2(c2ccc(Cl)cc2)C1 (stereo unspecified)

row,melting point,SMILES
1,141 to 143 °C,CCOCc1c(-c2ccc(OC(F)F)c(OC3CC3)c2)[nH]c2cn[nH]c(=O)c12
2,143 to 145 °C,COc1ccc(C(=O)c2c(N)sc3c2CCN(C(=O)c2ccccc2)C3)cc1OC
3,70 to 71 °C,CN(C(=O)OC(C)(C)C)c1sc(-c2cncc(F)c2)nc1I
4,177 to 178 °C,CCOC(=O)Nc1ccc(C(=O)OCC)nc1
5,88 to 89.5 °C,N=c1n(Cc2ccc(F)c(F)c2)c2ccc(Br)cc2n1Cc1ccc(F)c(F)c1
6,162 to 165 °C,CNC(=NC#N)NCCCCc1nccc(NC(N)=NCCOC)n1
7,59 to 60 °C,FC(F)(F)c1ccc2c(Cl)ncc(Br)c2n1
8,70 °C,CCN(CC)C(=O)CCc1cc2ccccc2c(-c2ccccc2)n1
9,132 to 134 °C,Cc1sc(C(=O)O)c(SC(C)C)c1Br
10,251 to 252 °C,CC1(C)Oc2ccc(Br)cc2C(Oc2ccnc(O)c2)C1(C)O (stereo unspecified)
11,135 to 137 °C,COc1ccc2[nH]c(C=Cc3ccccc3Cl)cc2c1
12,162 to 164 °C,COc1c(C)c(N2CCN(c3ccc(OC(F)(F)F)cc3)CC2)c(C)c2c1OC(C)(C)C2
13,156 to 160 °C,CS(=O)(=O)c1ccc(-n2nc(C(F)(F)F)cc2-c2ccc(-c3ccco3)cc2F)cc1F
14,96 to 101 °C,COc1ccc(C=O)c(OCC#N)c1
15,113 to 114 °C,O=C1NCC(Cc2cccc(Cl)c2)O1 (stereo unspecified)
16,192 °C,CCNC(=O)c1ccc(-n2nnc(C(=O)NC3CC3)c2CSC)cc1
17,73 to 74 °C,Cc1cc(N)c([N+](=O)[O-])cc1OC(F)F
18,154 to 155 °C,CCN(CC)C(=O)Nc1ccc(-c2c[nH]c(=O)cn2)cc1
19,117 to 118 °C,NC(=O)C1(CCCCCCCCCCCCC2(C(=O)O)CC2)CC1
20,167 to 169 °C,COc1cc(OC)cc(N2CCN(C(=S)Nc3cc(C(C)=O)c(C)nc3OC)CC2)c1
21,190 to 191 °C,CCc1nc(/C=C/c2cn(-c3ccccc3)nc2OCc2ccc(OCc3nc(-c4cccc(C(=O)O)c4)oc3C)c(OC)c2)cs1
22,> 260 °C,NC1=C([N+](=O)[O-])C(=O)NC1=Cc1ccccc1
23,208 to 210 °C,Cc1cc(-c2csc(N)n2)on1

row,melting point,SMILES
1,145 to 147 °C,CN(Cc1cc2c(=O)c(C(=O)NCc3ccc(Cl)cc3)cn(C)c2o1)CC(O)c1cccs1 (stereo unspecified)
2,170 to 172 °C,c1ccc(-c2nn3c(c2-c2nc4ncccc4[nH]2)CCC3)nc1
3,276 to 280 °C,Cc1cccc(NC(=O)C2=C(O)c3ccccc3S(=O)(=O)N2C)c(=O)c1
4,58 to 60 °C,Cn1cncc1[N+](=O)[O-]
5,209 to 210 °C,N=C(Nc1cc(Cl)cc(NC(=O)/C=C/c2ccccc2C(F)(F)F)c1)c1ccccc1F
6,205 °C,Nc1cc(C(=O)O)cc(N)c1O
7,125 to 136 °C,CCCn1c(=O)c2c(nc(/C=C/c3ccc(Cl)c(Cl)c3)n2C)n(CCC)c1=O
8,218 to 219 °C,CNC(=O)c1ccc(-c2ccc(NC(=O)NCc3cccnc3)cc2)nc1NCc1ccncc1
9,110 to 112 °C,CSCc1c(N)c([N+](=O)[O-])cc(F)c1F
10,123 to 125 °C,CC(C)n1nc(O)nc1N1CCCC1
11,215 to 219 °C,N#Cc1cnn(-c2ccc(Cl)c(Cl)c2Cl)c1C=CC(=O)O
12,182 to 184 °C,CC(C)Nc1cccnc1N1CCN(C(=O)c2ccc(C(=O)NCCO)cc2)CC1
13,114 to 116 °C,C=CCNC(=O)c1cnc2c(OC)cccc2c1Cl
14,178 to 179 °C,O=CN(O)C(CS(=O)(=O)c1ccc(Oc2ccc(OC(F)(F)F)cc2)cc1)CS(=O)(=O)N1CCC2(CC1)OCCO2 (stereo unspecified)
15,125 to 126 °C,COC(=O)CNC(=O)c1ccc(C(=O)NS(=O)(=O)c2ccccc2)cn1
16,203 to 206 °C,O=C(O)c1ccccc1Nc1ccc(CCc2ccc(N3CC[C@@H]4CCCC[C@H]4C3)cc2)cc1
17,61 to 66 °C,CCCc1c(OCCCCCOc2c(C(C)=O)ccc(OCCCC(=O)O)c2CCC)ccc(C(C)=O)c1O
18,63 to 64 °C,CCCCCCCCCCCCCCC(=O)C(=O)NCCCC(=O)OCC
19,106 to 108 °C,CCCc1c(OCCCOc2ccc(CC(=O)O)cc2)ccc(C(C)=O)c1O
20,142 to 144 °C,CCOC(=O)C(=O)Nc1cc(C#N)c(C(C)=O)cc1[N+](=O)[O-]
21,200 °C,COc1ccc2c(c1)CCc1cc(Nc3ccccc3N)ccc1C2=O
22,157 to 159 °C,O=C(O)Cc1c(Cl)c(F)nc(F)c1Cl

row,SMILES,melting point
1,Nc1c(C2CNCCO2)oc2ccccc2c1=O (stereo unspecified),140 to 141 °C
2,CN1CCNC(c2ccccc2)c2cc([N+](=O)[O-])ccc21 (stereo unspecified),96 to 99 °C
3,NS(=O)(=O)c1ncccc1C1=NOCC1,155 to 156 °C
